Measurements: patent US20250073177A1, “LIPID NANOPARTICLES FOR OLIGONUCLEOTIDE DELIVERY” (ZIPHIUS NV, priority 2021, published 2025)

Experiments:
[1] = LNP particle size, polydispersity index and charge by Zeta Sizer; assay type: physicochemical; settings: LNP lipid:DOPE:Cholesterol:DMG-PEG 35:20:43.5:1.5, N/P about 40/1, firefly luciferase saRNA
Method: Cationic lipids, DOPE, Cholesterol and DMG-PEG lipid were solubilized in ethanol or DMSO at a molar ratio of 35:20:43.5:1.5 and a concentration of 100:25:20:25 μg/μL for C12-200 or 170:25:20:25 μg/μL for the comparator lipids. Lipid nanoparticles (LNP) were prepared by targeting an N/P ratio of approximately 40/1 with saRNA. Briefly, the firefly luciferase saRNA of approximately 9659 nucleotides was diluted to 0.5 mg/mL in 5 mM citrate buffer, pH 4.5. Microfluidic mixer (Ignite from Precision Nanosystems, California, USA) was used to mix the lipid solution with the saRNA aqueous solution at a ratio of about 1:3 (vol/vol) with total flow rates above 10 ml/min. The ethanol was then removed, and the external buffer replaced with 10 mM TRIS-HCL, PH 7.4, by dialysis. Finally, the lipid nanoparticles were filtered through a 0.2 μm pore sterile filter. Lipid nanoparticle particle size was 50-150 nm diameter and polydispersity index (PI) of 0.1-0.4 as determined by Zeta Sizer (Malvern Panalytical, UK). The charge of the formulation was also measured by Zeta Sizer and ranged between 20 to −20 mV.

[2] = saRNA encapsulation in LNP, Quant-IT RiboGreen assay; assay type: physicochemical; settings: LNP with firefly luciferase saRNA, RiboGreen with or without Triton X-100
Method: The saRNA loading in LNP formulations was quantified using a Quant-IT RiboGreen assay (Thermo Fisher Scientific, Waltham, Massachusetts, USA) as previously described. 14 samples were diluted tenfold in 1×Tris HCL-EDTA (TE) buffer (10 mM Tris-HCL, 1 mM EDTA, pH 7.5) with or without 2% (v/v) Triton X-100 (Sigma-Aldrich, Saint Louis, Missouri, USA). Standard solutions were also prepared in 1×TE with or without 2% (v/v) Triton X-100 to account for any variation in fluorescence. The assay was performed according to the manufacturer's protocol. Samples were loaded on a black 96-well plate and analysed for fluorescence on a microplate reader (Tecan Infinite® 200 PRO) at an excitation of 485 nm and emission at 528 nm. Encapsulation efficiency was calculated between 80-100%. See Table 3 below for the results obtained.

Female SWISS mice = assay: In vivo bioluminescent imaging of LNP-formulated luciferase saRNA expression; settings: 1 μg luciferase saRNA in LNP
Method: (§1) Female SWISS mice (6 weeks old) were purchased from Janvier Laboratories (Paris, France) and kept in individually ventilated cages with access to food and water ad libitum. Mice were anesthetized with isoflurane (Zoetis, Louvain-La-Neuve, Belgium) (5% for induction and 2% for maintenance) and intramuscularly injected with a total of 1 μg in 100 μL Tris-HCL (50 μL per leg) LNP-formulated luciferase saRNA (for each group n=7). The expression of the luciferase induced bioluminescence was measured via non-invasive In vivo bioluminescent imaging (In vivo Imaging System (IVIS) Lumina III, Perkin Elmer, Waltham, Massachusetts, USA), 10 minutes after subcutaneous injection of 200 μL of D-luciferin (GoldBio, Saint Louis, Missouri, USA, #LUCK-1G) were measured in day 0 (before injection), day 1, day 3, day 5, day 7, day 10, day 15 and day 20.

[3] = Body weight of mice after injection of LNP-formulated luciferase saRNA; assay type: in vivo; settings: 1 μg luciferase saRNA in LNP
Method: as §1
See Tables 4 and FIG. 1 for the results showing higher expression of the saRNA compared to prior art compounds at day 15 onwards when administered in LNPs comprising compounds of the invention. Table 5 supports good tolerability of the compounds of the invention.

[4] = Day 0 (before injection), intramuscular

Polydispersity Index (PI) [1] | Z-average [1] [nm] | Zetapotential [1] [mV] | Encapsulation [2] [%] | Compound | Bioluminescence expression of LNPs (Female SWISS mice; [4]) | Bioluminescence expression of LNPs (Female SWISS mice; Day 1, intramuscular) | Bioluminescence expression of LNPs (Female SWISS mice; Day 3, intramuscular) | Bioluminescence expression of LNPs (Female SWISS mice; Day 5, intramuscular) | Bioluminescence expression of LNPs (Female SWISS mice; Day 7, intramuscular) | Bioluminescence expression of LNPs (Female SWISS mice; Day 10, intramuscular) | Bioluminescence expression of LNPs (Female SWISS mice; Day 15, intramuscular) | Bioluminescence expression of LNPs (Female SWISS mice; Day 20, intramuscular) | Weight [3, 4] [g] | Weight ([3]; Day 1, intramuscular) [g] | Weight ([3]; Day 3, intramuscular) [g] | Weight ([3]; Day 5, intramuscular) [g] | Weight ([3]; Day 7, intramuscular) [g] | Weight ([3]; Day 10, intramuscular) [g] | Weight ([3]; Day 15, intramuscular) [g] | Weight ([3]; Day 20, intramuscular) [g]
0.16 | 85.72 | −12.65 | 98.64 | CCCCCCC(CCCC)C(=O)NCCN1CCN(CCN(CCCCOC(=O)C(CCCC)CCCCCC)CCCCOC(=O)C(CCCC)CCCCCC)CC1 (stereo not shown) [Compound 8-27, ((2-(4-(2-(2-butyloctanamido)ethyl)piperazin-1-yl)ethyl)azanediyl)bis(butane-4,1-diyl) bis(2-butyloctanoate)] | 8.55E+04 | 1.40E+08 | 9.90E+08 | 7.71E+08 | 2.35E+08 | 6.86E+06 | 7.44E+05 | 8.29E+05 | 27.07 | 26.01 | 27.57 | 28.86 | 28.40 | 28.67 | 29.44 | 30.57
0.16 | 70.96 | 9.07 | 99.03 | CCCCCCCCCCCCCCOC(=O)CCN(CCC(=O)OCCCCCCCCCCCCCC)CCN1CCN(CCN(CCC(=O)OCCCCCCCCCCCCCC)CCC(=O)OCCCCCCCCCCCCCC)CC1 [Comparator 1, reference compound] |  |  |  |  |  |  |  |  | 26.56 | 25.99 | 27.21 | 27.59 | 27.09 | 27.17 | 29.43 | 30.11
0.23 | 81.44 | −20.01 | 99.04 | CCCCCCC(CCCC)C(=O)OCCCCN(CCCCOC(=O)C(CCCC)CCCCCC)CCN1CCN(CCOC(=O)C(CCCC)CCCCCC)CC1 (stereo not shown) [Compound 8-41, ((2-(4-(2-((2-butyloctanoyl)oxy)ethyl)piperazin-1-yl)ethyl)azanediyl)bis(butane-4,1-diyl) bis(2-butyloctanoate)] | 5.33E+04 | 5.42E+07 | 7.43E+08 | 6.54E+08 | 4.67E+08 | 9.17E+06 | 1.88E+06 | 1.88E+06 | 28.03 | 27.31 | 28.49 | 29.04 | 28.69 | 29.24 | 30.24 | 31.19
0.10 | 81.42 | 2.78 | 100.49 | CCCCCCCCCCC(O)CN(CCN1CCN(CCN(CC(O)CCCCCCCCCC)CC(O)CCCCCCCCCC)CC1)CCN(CC(O)CCCCCCCCCC)CC(O)CCCCCCCCCC (stereo not shown) [Compound C12-200, 1,1′-((2-(4-(2-((2-(bis (2-hydroxydodecyl)amino)ethyl) (2-hydroxydodecyl)amino)ethyl)piperazin-1-yl)ethyl)azanediyl)bis (dodecan-2-ol), reference compound] |  |  |  |  |  |  |  |  | 28.61 | 27.17 | 28.62 | 28.98 | 28.97 | 29.23 | 30.16 | 31.23
